Values of other authors, collected in US8920373B2, “Reduced volume formulation of glatiramer acetate and methods of administration” (Teva Pharmaceutical Industries, Ltd., priority 2009, dated 2014).

Tested on: RRMS subjects

In the case of glatiramer acetate, the “Patients reporting Immediate Post-Injection Reaction (IPIR)” value (human, in vivo) is given as 31%, the “Proportion of patients reporting injection-site reactions at least once” value (human, in vivo) is given as 70% and the “Reduction of relapse rate versus placebo” value (largest controlled study) is given as 32%. The Relapse rate (largest controlled study) was 1.34 and the “Median cumulative number of Gd-enhancing lesions” value (over 9 months of treatment) was 11 lesions.
